We go through one compound from patent US12472185B2, “Methods for killing antibiotic tolerant bacteria” (THE PENN STATE RESEARCH FOUNDATION, priority 2020, dated 2025).

Usually MIC stands for the lowest concentration that inhibits growth of the organism. Read a high MIC as weaker potency.

The subject of one assay is E. coli K-12 BW25113. Put plainly: Minimum inhibitory concentration (MIC). To be noted: Escherichia coli, LB, 24 hr. It is filed as cell-based. Here is the method:
(§1) The bacteria used in this study are E. coli K-12 BW25113 (Baba et al., 2006), S. aureus ATCC29213, and P. aeruginosa PA14 (Liberati et al., 2006). Lysogeny broth (LB; Bertani, 1951) was used at 37° C. for culturing the bacteria. 2-(Aminomethyl)-indole was obtained from Sigma-Aldrich (catalog number 563838), and 2-methyl-5-nitro-3-phenyl-1H-indole was obtained from ChemBridge (San Diego, CA).
(§2) To determine the MICs of NPIMA and 5-iodoindole for E. coli K-12, S. aureus, and P. aeruginosa PA14, cells were inoculated into LB at varying concentrations and grown for 24 hr. The MIC was determined as the lowest concentration that prevented an increase in growth as evidenced by a lack of change of turbidity.

Assay [1] deals with P. aeruginosa PA14. Put plainly: Minimum inhibitory concentration (MIC). The format is cell-based. The conditions noted are these: Pseudomonas aeruginosa, LB, 24 hr. Here is the method:
as §1, §2

Another assay relates to S. aureus ATCC29213. Put plainly: Minimum inhibitory concentration (MIC). It is filed as cell-based. To be noted: Staphylococcus aureus, LB, 24 hr. Here is the method: as §1, §2
Assay [2] relates to E. coli BW25113 persister cells. Put plainly: Survival of persister cells (rifampicin/ampicillin generated). It is filed as cell-based, Escherichia coli. To be noted: 100 μM. The procedure: FIG. 3. NPIMA kills Escherichia coli, Pseudomonas aeruginosa, persister cells. Survival of (a) E. coli BW25113 and (b) P. aeruginosa PA14 after treatment with NPIMA (100 μM), 5-iodoindole (5-II, 100 μM), and DMSO for 6 hr. Asterisk indicates no viable cells detected. DMSO, dimethyl sulfoxide; NPIMA, 5-nitro-3-phenyl-1H-indol-2-yl-methylamine hydrochloride.
E. coli persister cells were prepared following our previous method (Kim, Yamasaki, et al., 2018; Kwan, Valenta, Benedik, & Wood, 2013). Exponentially-growing cells (turbidity of 0.8 at 600 nm) were treated with rifampicin (100 μg/ml for 30 min) to stop transcription, washed, and any remaining nonpersister cells were lysed by ampicillin in LB (100 μg/ml for 3 hr). Cells were harvested by centrifugation (17,000 g for 1 min) and washed with 1× phosphate-buffered saline buffer (PBS, 8 g NaCl, 0.2 g KCl, 1.15 g Na2HPO4, and 0.2 g KH2PO4 per 1,000 ml) twice to remove all possible carbon sources, then resuspended with 1×PBS. Natural E. coli persister cells were generated by treating stationary-phase cells (turbidity of 6 at 600 nm) with ampicillin (100 μg/ml) for 3 hr. P. aeruginosa PA14 persister cells were prepared by incubating to the stationary phase, diluting sixfold, and treating with carbonyl cyanide m-chlorophenylhydrazone (CCCP, 50 mg/ml stock solution in dimethly sulfoxide [DMSO]) to stop adenosine triphosphate (ATP) production (200 μg/ml for 3 hr), washed twice with 0.85% NaCl (5,000 g for 10 min), and any nonpersister cells were killed by ciprofloxacin (5 μg/ml) in LB for 3 hr. Following the antibiotic treatment, bacteria were washed twice with 0.85% NaCl (5,000 g for 10 min).
For bacterial viability, cells were washed twice with 0.85% NaCl, resuspended in 1×PBS, and cell counts were determined via the drop assay (Donegan, Matyac, Seidler, & Porteous, 1991). […] Cell viability was determined via a cell counting kit (CCK-8 Kit, ab228554; Abcam), and cytotoxicity was determined via the lactate dehydrogenase (LDH) assay (LDH Assay Kit, MK401; Takara).

The subject of assay [3] is P. aeruginosa PA14. Kind of assay: LIVE/DEAD staining. It is filed as cell-based, Pseudomonas aeruginosa. To be noted: 100 μM, 1 hr. The procedure: FIG. 4. NPIMA lyses Escherichia coli, Pseudomonas aeruginosa, and Staphylococcus aureus. LIVE/DEAD staining of (a) E. coli BW25113 after 0.75 hr, (b) P. aeruginosa PA14 after 1 hr, and (c) S. aureus after 1 hr treatment with NPIMA at 100 μM. […] White arrows indicate lysed cells. Representative images are shown. Scale bar=[…]. NPIMA, 5-nitro-3-phenyl-1H-indol-2-ylmethylamine hydrochloride.
Cell viability after treating with NPIMA was determined using the using the LIVE/DEAD BacLight Bacterial Viability Kit (catalog number, L7012; Molecular Probes, Inc., Eugene, OR). The fluorescence signal was analyzed via a Zeiss Axioscope.A1 using excitation at 485 nm and emission at 530 nm for green fluorescence and using excitation at 485 nm and emission at 630 nm for red fluorescence.

A further assay has as its system E. coli BW25113. Kind of assay: Lysis assays (total protein and DNA in supernatants). The format is cell-based, Escherichia coli. The conditions noted are these: 100 μM, 1 hr. Here is the method:
(§3) FIG. 5. NPIMA lyses Escherichia coli, Pseudomonas aeruginosa, and Staphylococcus aureus. Total protein (a) and DNA (b) found in supernatants as evidence of cell lysis after treatment of cells at a turbidity of 0.8 at 600 nm with 100 μM NPIMA after 1 hr for E. coli and P. aeruginosa and 6 hr for S. aureus. NPIMA, 5-nitro-3-phenyl-1H-indol-2-yl-methylamine hydrochloride.
(§4) Exponentially-growing E. coli BW25113 cells (turbidity 0.8 at 600 nm) were washed twice with 0.85% NaCl, resuspended in 1 ml of 1×PBS, and NPIMA (100 μM) was added for 1 hr for E. coli and P. aeruginosa and 6 hr for S. aureus with shaking at 250 rpm (0.1% DMSO was used as the negative control). Cell supernatants were collected after centrifuging at 6,500 g (4° C. for 15 min), and total protein was measured by the Bicinchoninic Acid (BCA) protein assay Kit (Prod #23227; Pierce). DNA in the supernatant (199 μl) was detected by adding 1 μl of Picogreen (P7589; Invitrogen) and incubating for 5 min at room temperature in the dark room. The fluorescence signal was read by a Tecan microplate reader (Infinite M200PRO) with 480 nm excitation and 520 nm emission by utilizing a calibration curved made with plasmid pEX18Ap at 0, 0.004, 0.008, 0.016, 0.063, 0.125, 0.25, and 0.5 ng/μl.

For a further assay, the system named is P. aeruginosa. Described as above. The format is cell-based, Pseudomonas aeruginosa. The conditions noted are these: 100 μM, 1 hr. The procedure: as §3, §4
A further assay has as its system E coli. Kind of assay: Resistance test by daily propagation at 0.25 MIC. The format is cell-based, Escherichia coli. To be noted: 7 days at 0.25 MIC (25 μM), then 1 MIC (100 μM) overnight. The procedure:
After 7 days, the sequentially-propagated E. coli cells were contacted with LB with 1 MIC of NPIMA (100 μM) and incubated overnight to allow any putative resistant cells to grow and increase the turbidity.

Structures are written as SMILES. “And” between values parts separate entries of the source, which are not always exact repeats. Equal entries are not always repeated.

For `Cl.NCc1[nH]c2ccc([N+](=O)[O-])cc2c1-c1ccccc1` [NPIMA, [(5-nitro-3-phenyl-1H-indol-2-yl)methyl]amine hydrochloride], the MIC against E. coli K-12 BW25113 is 100 µM and 15 µg/mL. The MIC against P. aeruginosa PA14 [1] turned out to be 250 µM. The lowest concentration to inhibit growth with S. aureus ATCC29213 (MIC) was 100 µM. Moreover, the “time to eradicate E. coli persisters” value in assay [2] came out at 6 h. Moreover, the “killing of E. coli persister cells” value in assay [2] (6 hr) was “eradicated”. Also, in the assay on P. aeruginosa PA14 [3], the “cell lysis seen by LIVE/DEAD staining (extracellular DNA)” value is “lysed” and the “cells killed (LIVE/DEAD)” value is 100%. For the same compound, in the assay with E. coli BW25113, the “increase in DNA in the supernatants compared to DMSO alone” value was determined as 3.8±0.8 and the “increase in total cell protein in supernatants compared to DMSO alone” value is 10±2. In addition, in the assay on P. aeruginosa, the “increase in DNA released compared to DMSO alone” value is listed as 1.19±0.09 fold and the “total protein released compared to DMSO alone” value is on record as 4.0±0.4 fold. The resistance after propagation result with E coli is reported as “all of the E. coli cells were killed”.
